{
  "source": "ChEMBL document CHEMBL1201862",
  "about": "“PubChem BioAssay data set” (2004)",
  "key": {"Caspase-6": {"biological_target": "T1, Caspase-6 (Homo sapiens, UniProt P55212)", "T1 sequence (P55212 whole entry)": "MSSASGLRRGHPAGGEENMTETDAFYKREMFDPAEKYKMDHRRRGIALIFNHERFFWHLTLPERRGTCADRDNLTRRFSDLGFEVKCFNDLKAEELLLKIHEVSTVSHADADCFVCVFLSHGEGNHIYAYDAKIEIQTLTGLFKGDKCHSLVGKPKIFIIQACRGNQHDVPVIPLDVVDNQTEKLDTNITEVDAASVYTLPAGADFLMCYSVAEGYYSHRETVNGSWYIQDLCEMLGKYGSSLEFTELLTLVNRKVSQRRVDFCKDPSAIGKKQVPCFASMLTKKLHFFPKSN", "assay": "inhibition of CASP6 peptide cleavage – biochemical, VEID-R110 fluorescence, cherry-pick, dose response (AID 720632)"}, "[1]": {"biological_target": "Tyrosyl-DNA phosphodiesterase 2 (Homo sapiens, UniProt O95551)", "sequence (O95551 whole entry)": "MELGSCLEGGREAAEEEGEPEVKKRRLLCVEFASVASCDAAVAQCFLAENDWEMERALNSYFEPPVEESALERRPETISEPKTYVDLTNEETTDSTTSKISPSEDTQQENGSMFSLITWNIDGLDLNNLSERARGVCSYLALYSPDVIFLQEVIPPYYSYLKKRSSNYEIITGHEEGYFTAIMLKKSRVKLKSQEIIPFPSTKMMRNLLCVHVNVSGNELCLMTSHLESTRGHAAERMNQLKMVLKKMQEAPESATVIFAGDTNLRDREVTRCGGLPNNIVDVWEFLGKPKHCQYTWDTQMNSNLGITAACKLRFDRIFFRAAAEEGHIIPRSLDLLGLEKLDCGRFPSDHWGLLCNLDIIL", "assay": "potency against TDP2 phosphodiesterase activity – biochemical, epi absorbance, IC50, dose response (AID 743297)"}, "[2]": {"biological_target": "Ribosomal protein S6 kinase alpha-3 (Homo sapiens, UniProt P51812)", "sequence (P51812 whole entry)": "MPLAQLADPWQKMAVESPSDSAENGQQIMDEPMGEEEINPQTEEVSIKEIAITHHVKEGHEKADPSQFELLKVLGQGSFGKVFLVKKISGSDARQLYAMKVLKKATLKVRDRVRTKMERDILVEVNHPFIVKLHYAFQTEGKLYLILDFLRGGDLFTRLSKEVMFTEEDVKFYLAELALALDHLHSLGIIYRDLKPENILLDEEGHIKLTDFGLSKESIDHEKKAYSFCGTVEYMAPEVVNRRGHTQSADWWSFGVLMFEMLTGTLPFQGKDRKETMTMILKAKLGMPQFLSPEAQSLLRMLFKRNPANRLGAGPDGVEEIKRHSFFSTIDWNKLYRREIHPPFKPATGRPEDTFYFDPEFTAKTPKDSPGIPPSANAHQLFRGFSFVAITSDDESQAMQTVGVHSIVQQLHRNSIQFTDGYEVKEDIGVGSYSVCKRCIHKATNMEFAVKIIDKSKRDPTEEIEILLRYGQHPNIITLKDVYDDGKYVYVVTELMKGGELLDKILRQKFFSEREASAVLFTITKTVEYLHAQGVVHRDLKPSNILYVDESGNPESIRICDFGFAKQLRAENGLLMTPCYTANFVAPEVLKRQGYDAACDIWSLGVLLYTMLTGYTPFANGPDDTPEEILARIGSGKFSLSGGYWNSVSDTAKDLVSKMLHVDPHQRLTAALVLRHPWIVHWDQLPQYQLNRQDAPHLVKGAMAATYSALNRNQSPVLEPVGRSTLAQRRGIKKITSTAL", "format": "functional"}, "[3]": {"biological_target": "T2, DNA repair protein RAD52 homolog (Homo sapiens, UniProt P43351)", "T2 sequence (P43351 whole entry)": "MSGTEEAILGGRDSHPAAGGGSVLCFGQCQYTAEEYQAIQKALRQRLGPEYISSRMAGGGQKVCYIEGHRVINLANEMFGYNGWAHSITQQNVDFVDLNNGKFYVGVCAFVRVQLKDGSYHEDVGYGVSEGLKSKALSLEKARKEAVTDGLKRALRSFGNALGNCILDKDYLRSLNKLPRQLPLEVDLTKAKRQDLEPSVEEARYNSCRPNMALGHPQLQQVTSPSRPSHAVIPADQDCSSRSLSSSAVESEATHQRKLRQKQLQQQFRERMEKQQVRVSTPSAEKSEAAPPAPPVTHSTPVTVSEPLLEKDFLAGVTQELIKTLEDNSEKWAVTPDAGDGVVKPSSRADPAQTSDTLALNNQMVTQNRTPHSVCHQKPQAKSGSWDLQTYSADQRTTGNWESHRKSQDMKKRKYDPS", "format": "functional, biochemical"}, "Protein skinhead-1": {"biological_target": "T3, Protein skinhead-1 (Caenorhabditis elegans, UniProt P34707)", "T3 sequence (P34707 whole entry)": "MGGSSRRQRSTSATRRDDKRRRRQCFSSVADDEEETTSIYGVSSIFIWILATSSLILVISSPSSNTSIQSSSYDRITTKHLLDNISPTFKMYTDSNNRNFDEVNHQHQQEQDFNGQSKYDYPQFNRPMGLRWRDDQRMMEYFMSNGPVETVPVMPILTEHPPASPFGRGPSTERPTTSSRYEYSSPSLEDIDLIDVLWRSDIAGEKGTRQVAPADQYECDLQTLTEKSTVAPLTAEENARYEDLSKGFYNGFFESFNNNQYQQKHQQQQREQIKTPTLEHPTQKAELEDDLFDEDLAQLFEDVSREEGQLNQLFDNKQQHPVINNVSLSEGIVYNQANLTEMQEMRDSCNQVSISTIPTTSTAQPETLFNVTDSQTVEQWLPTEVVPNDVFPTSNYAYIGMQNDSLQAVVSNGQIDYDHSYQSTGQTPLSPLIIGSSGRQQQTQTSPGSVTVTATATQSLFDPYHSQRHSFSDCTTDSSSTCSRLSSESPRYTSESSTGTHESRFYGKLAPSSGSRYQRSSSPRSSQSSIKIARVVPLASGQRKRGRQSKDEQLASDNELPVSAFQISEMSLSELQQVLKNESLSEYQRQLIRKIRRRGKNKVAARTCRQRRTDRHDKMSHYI", "format": "functional"}, "Genome polyprotein": {"biological_target": "Genome polyprotein (dengue virus type 2, UniProt P29990)", "sequence (P29990 2492-3391 limits assumed)": "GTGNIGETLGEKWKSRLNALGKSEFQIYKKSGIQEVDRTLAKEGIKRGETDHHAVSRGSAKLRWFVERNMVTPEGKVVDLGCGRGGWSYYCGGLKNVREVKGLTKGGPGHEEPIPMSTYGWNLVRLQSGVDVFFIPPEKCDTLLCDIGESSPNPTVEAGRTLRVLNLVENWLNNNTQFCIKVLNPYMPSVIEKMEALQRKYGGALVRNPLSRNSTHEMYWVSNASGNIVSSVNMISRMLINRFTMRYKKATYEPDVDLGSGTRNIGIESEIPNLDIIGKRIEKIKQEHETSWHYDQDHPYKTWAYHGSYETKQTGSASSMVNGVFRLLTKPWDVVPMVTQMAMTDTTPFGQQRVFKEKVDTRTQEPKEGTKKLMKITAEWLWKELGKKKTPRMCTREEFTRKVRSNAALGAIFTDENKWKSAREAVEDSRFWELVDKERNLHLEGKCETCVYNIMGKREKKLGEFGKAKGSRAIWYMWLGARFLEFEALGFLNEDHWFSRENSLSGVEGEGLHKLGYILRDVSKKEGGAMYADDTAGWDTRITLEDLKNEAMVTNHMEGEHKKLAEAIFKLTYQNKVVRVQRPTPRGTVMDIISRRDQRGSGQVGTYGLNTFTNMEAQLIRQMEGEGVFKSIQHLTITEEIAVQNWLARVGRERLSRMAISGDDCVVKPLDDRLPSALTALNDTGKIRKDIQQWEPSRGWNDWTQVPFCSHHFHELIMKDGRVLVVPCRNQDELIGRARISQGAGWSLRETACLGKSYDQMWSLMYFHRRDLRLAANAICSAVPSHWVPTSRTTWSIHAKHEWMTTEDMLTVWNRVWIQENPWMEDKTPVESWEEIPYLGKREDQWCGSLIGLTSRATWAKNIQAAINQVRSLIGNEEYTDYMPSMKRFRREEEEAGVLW", "assay": "flavivirus cap methylation enzyme inhibition – biochemical, confirmation dose response, primary screen (AID 588689)", "format": "functional"}},
  "note": "Calls of active or inactive are those of the source.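 Wherever Ki is given: measured within a kinome-wide profiling panel.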",
  "data": [
    {"compound": "Oc1nc(Nc2ccc(F)cc2)cc2ccccc12", "values": [
      {"measurement": "AC50", "setting": "Caspase-6", "value": "0.942 µM (active)"},
      {"measurement": "IC50", "setting": "[1]", "value": "7.66 µM (active)"}
    ]},
    {"compound": "O=C1Nc2cc(-c3ccc(O)cc3)ccc2C1=Cc1ccc[nH]1", "values": [
      {"measurement": "Ki", "setting": "[2]", "value": "0.0316 µM (active)"}
    ]},
    {"compound": "CCN(CC)CCOc1ccc2c(c1)C(=NNC(=O)c1ccccn1)c1cc(OCCN(CC)CC)ccc1-2", "values": [
      {"measurement": "AC50", "setting": "[3]", "value": "< 0.15 µM (active)"}
    ]},
    {"compound": "O=C(O)c1ccc2c(c1)[C@@H]1C=CC[C@@H]1[C@H](c1ccccn1)N2", "values": [
      {"measurement": "IC50", "setting": "Protein skinhead-1", "value": "> 100 µM (inactive)"},
      {"measurement": "IC50", "setting": "Genome polyprotein", "value": "26.3 µM (active)"}
    ]}
  ]
}
